Test [1] deals with T1, full-length beta-Catenin (Uniprot ID P35222) (Homo sapiens, UniProt P35222).
T1 construct: 10 nM full-length beta-Catenin (Uniprot ID P35222)
T1 sequence (P35222 1-781): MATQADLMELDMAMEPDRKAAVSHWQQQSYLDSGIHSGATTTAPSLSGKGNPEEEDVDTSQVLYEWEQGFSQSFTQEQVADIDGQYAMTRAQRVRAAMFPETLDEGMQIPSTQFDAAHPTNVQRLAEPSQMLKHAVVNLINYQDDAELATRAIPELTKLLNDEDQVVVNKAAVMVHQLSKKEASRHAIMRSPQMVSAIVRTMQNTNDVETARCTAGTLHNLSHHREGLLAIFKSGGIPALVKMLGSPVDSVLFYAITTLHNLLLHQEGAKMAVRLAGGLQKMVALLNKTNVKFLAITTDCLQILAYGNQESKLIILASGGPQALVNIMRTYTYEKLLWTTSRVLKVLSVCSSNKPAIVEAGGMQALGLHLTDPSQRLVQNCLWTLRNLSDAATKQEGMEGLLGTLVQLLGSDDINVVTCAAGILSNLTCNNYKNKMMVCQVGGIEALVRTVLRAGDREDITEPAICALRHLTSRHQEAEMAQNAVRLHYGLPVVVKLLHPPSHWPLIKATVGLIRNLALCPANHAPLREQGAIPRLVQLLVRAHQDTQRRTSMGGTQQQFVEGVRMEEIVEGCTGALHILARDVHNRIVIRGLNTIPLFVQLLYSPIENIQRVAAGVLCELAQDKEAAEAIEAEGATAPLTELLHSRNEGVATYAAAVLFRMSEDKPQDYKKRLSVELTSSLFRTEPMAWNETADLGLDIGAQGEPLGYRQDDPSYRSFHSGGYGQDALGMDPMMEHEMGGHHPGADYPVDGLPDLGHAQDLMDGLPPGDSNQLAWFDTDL
Briefly: Fluorescence polarization IC50 (beta-catenin / 5FAM-TCF4 10-53 competition). The format is binding. Particulars: fluorescence polarization. Background: In fluorescence polarisation assays a small probe gives low polarisation when free and higher when bound to something large.

The target of test [2] is T2, beta-catenin/TCF4 engagement (Homo sapiens, UniProt P35222).
T2 construct: expressed in transfected cells; host or cells: HEK293
T2 sequence (P35222 1-781): T1 sequence (P35222 1-781)
The test can be described thus: Nano-BRET target engagement assay (B-cat-Halo & TCF4-Luc in HEK293 cells). The format is cell-based. Particulars: absolute IC50; read-out: NanoBRET Abs IC50. A general note: BRET reads energy transfer from a luciferase to a nearby fluorophore.

[3] abbreviates: beta-catenin, read-out: FP EC50.

Read-outs that look alike come from different tables or passages of the source. Some results are limits rather than exact numbers.

Consider `CC(=O)N1CCC[C@]12CC=CCCCC1(CCCC=CCCCOC(=O)N3CC[C@@](C(=O)N[C@@H](Cc4ccsc4)C(=O)N[C@@H](Cc4csc5ccccc45)C(=O)N[C@@H](CCC(N)=O)C(N)=O)(C3)NC(=O)[C@H](CC(C)C)NC(=O)[C@H](Cc3ccccc3)NC(=O)[C@H](C)NC(=O)[C@H](C)NC(=O)[C@H](Cc3c[nH]c4ccccc34)NC(=O)[C@H](CC(=O)O)NC1=O)NC(=O)[C@H](CC(C)(C)C)NC(=O)[C@H](CC(=O)O)NC2=O` (stereo partly drawn) [I-1439, Ac-PL3-Asp-Npg-B5-Asp-Trp-Ala-Ala-Phe-Leu-PyrS2-3Thi-BztA-Gln-NH2], for which the IC50 in test [1] (read-out: beta-Catenin FP IC50) was 349 nM; in test [2], more than 20000 nM.
For the molecule `CC(=O)N1CCC[C@]12CC=CCCCC1(CCCC=CCCCOC(=O)N3CC[C@@](C(=O)N[C@@H](Cc4ccsc4)C(=O)N[C@@H](Cc4csc5ccccc45)C(=O)N[C@@H](CCC(N)=O)C(N)=O)(C3)NC(=O)[C@H](CC(C)C)NC(=O)[C@H](Cc3ccccc3)NC(=O)[C@H](C)NC(=O)[C@H](C)NC(=O)[C@H](CCC(N)=O)NC(=O)[C@H](CC(=O)O)NC1=O)NC(=O)[C@H](CC(C)(C)C)NC(=O)[C@H](CC(=O)O)NC2=O` (stereo partly drawn) [I-1440, Ac-PL3-Asp-Npg-B5-Asp-Gln-Ala-Ala-Phe-Leu-PyrS2-3Thi-BztA-Gln-NH2], the IC50 amounted to 26 nM in test [1] (read-out: beta-Catenin FP IC50) and 20700 nM in test [2].
In the same order, the values of `CC(=O)N1CCC[C@]12CC=CCCCC1(CCCC=CCCCOC(=O)N3CC[C@@](C(=O)N[C@@H](Cc4ccsc4)C(=O)N[C@@H](Cc4csc5ccccc45)C(=O)N[C@@H](CCC(N)=O)C(N)=O)(C3)NC(=O)[C@H](CC(C)C)NC(=O)[C@H](Cc3ccccc3)NC(=O)[C@H](C)NC(=O)[C@H](C)NC(=O)[C@H](CO)NC(=O)[C@H](CC(=O)O)NC1=O)NC(=O)[C@H](CC(C)(C)C)NC(=O)[C@H](CC(=O)O)NC2=O` (stereo partly drawn) [I-1443, Ac-PL3-Asp-Npg-B5-Asp-Ser-Ala-Ala-Phe-Leu-PyrS2-3Thi-BztA-Gln-NH2] are 24 nM and 9500 nM.
With `CC(=O)N1CCC[C@]12CC=CCCCC1(CCCC=CCCCOC(=O)N3CC[C@@](C(=O)N[C@@H](Cc4ccsc4)C(=O)N[C@@H](Cc4csc5ccccc45)C(=O)N[C@@H](CCC(N)=O)C(N)=O)(C3)NC(=O)[C@H](CC(C)C)NC(=O)[C@H](Cc3ccccc3)NC(=O)[C@H](C)NC(=O)[C@H](C)NC(=O)[C@H](Cc3cn(CC(=O)O)c4ccccc34)NC(=O)[C@H](CC(=O)O)NC1=O)NC(=O)[C@H](CC(C)(C)C)NC(=O)[C@H](CC(=O)O)NC2=O` (stereo partly drawn) [I-1445, Ac-PL3-Asp-Npg-B5-Asp-1AcAW-Ala-Ala-Phe-Leu-PyrS2-3Thi-BztA-Gln-NH2], the IC50 in test [1] (read-out: beta-Catenin FP IC50) came out at 13 nM; in test [2], 11100 nM.
In the same order, the values of `CC(=O)N1CCC[C@]12CC=CCCCC1(CCCC=CCCCOC(=O)N3CC[C@@](C(=O)N[C@@H](Cc4ccccc4Cl)C(=O)N[C@@H](Cc4csc5ccccc45)C(=O)N[C@@H](CCC(N)=O)C(N)=O)(C3)NC(=O)[C@H](CC(N)=O)NC(=O)[C@H](Cc3ccccc3)NC(=O)[C@H](C)NC(=O)[C@H](C)NC(=O)[C@H](CN(CCCC(F)(F)F)CC(=O)O)NC(=O)[C@H](CC(=O)O)NC1=O)NC(=O)[C@H](CC(C)(C)C)NC(=O)[C@H](CC(=O)O)NC2=O` (stereo partly drawn) [I-1446, Ac-PL3-Asp-Npg-B5-Asp-[Tfb]GA-Ala-Ala-Phe-Asn-PyrS2-2C1F-BztA-Gln-NH2] are 9 nM and 35200 nM.
The like results for `CC(=O)N1CCC[C@]12CC=CCCCC1(CCCC=CCCCOC(=O)N3CC[C@@](C(=O)N[C@@H](Cc4ccccc4Cl)C(=O)N[C@@H](Cc4csc5ccccc45)C(=O)N[C@@H](CCC(N)=O)C(N)=O)(C3)NC(=O)[C@H](CC(N)=O)NC(=O)[C@H](Cc3ccccc3)NC(=O)[C@H](C)NC(=O)[C@H](C)NC(=O)[C@H](CN(CC(=O)O)Cc3ccccc3)NC(=O)[C@H](CC(=O)O)NC1=O)NC(=O)[C@H](CC(C)(C)C)NC(=O)[C@H](CC(=O)O)NC2=O` (stereo partly drawn) [I-1447, Ac-PL3-Asp-Npg-B5-Asp-[Bn]GA-Ala-Ala-Phe-Asn-PyrS2-2C1F-BztA-Gln-NH2] were, in that order, 11 nM and 43400 nM.
For `CC(=O)N1CCC[C@]12CC=CCCCC1(CCCC=CCCCOC(=O)N3CC[C@@](C(=O)N[C@@H](Cc4ccccc4Cl)C(=O)N[C@@H](Cc4csc5ccccc45)C(=O)N[C@@H](CCC(N)=O)C(N)=O)(C3)NC(=O)[C@H](CC(N)=O)NC(=O)[C@H](Cc3ccccc3)NC(=O)[C@H](C)NC(=O)[C@H](C)NC(=O)[C@H](CN(CC(=O)O)Cc3c(F)c(F)c(F)c(F)c3F)NC(=O)[C@H](CC(=O)O)NC1=O)NC(=O)[C@H](CC(C)(C)C)NC(=O)[C@H](CC(=O)O)NC2=O` (stereo partly drawn) [I-1449, Ac-PL3-Asp-Npg-B5-Asp-[Pfbn]GA-Ala-Ala-Phe-Asn-PyrS2-2C1F-BztA-Gln-NH2], the IC50 in test [1] (setting [3]) was 16 nM; in test [1] (read-out: beta-Catenin FP IC50), 16 nM; in test [2] it was 29300 nM.
In the case of `CC(=O)N1CCC[C@]12CC=CCCCC1(CCCC=CCCCOC(=O)N3CC[C@@](C(=O)N[C@@H](Cc4ccccc4Cl)C(=O)N[C@@H](Cc4csc5ccccc45)C(=O)N[C@@H](CCC(N)=O)C(N)=O)(C3)NC(=O)[C@H](CC(N)=O)NC(=O)[C@H](Cc3ccccc3)NC(=O)[C@H](C)NC(=O)[C@H](C)NC(=O)[C@H](CN(CC(=O)O)C(C)C)NC(=O)[C@H](CC(=O)O)NC1=O)NC(=O)[C@H](CC(C)(C)C)NC(=O)[C@H](CC(=O)O)NC2=O` (stereo partly drawn) [I-1451, Ac-PL3-Asp-Npg-B5-Asp-[iPr]GA-Ala-Ala-Phe-Asn-PyrS2-2C1F-BztA-Gln-NH2], the figures for the IC50 in test [1] (read-out: beta-Catenin FP IC50) and in test [2] were 13 nM and 26200 nM, respectively.
Regarding `CC(=O)N1CCC[C@]12CC=CCCCC1(CCCC=CCCCCCC[C@@](C)(C(=O)N[C@@H](Cc3ccsc3)C(=O)N[C@@H](Cc3csc4ccccc34)C(=O)N[C@@H](CCC(N)=O)C(N)=O)NC(=O)[C@H](CC(N)=O)NC(=O)[C@H](Cc3ccccc3)NC(=O)[C@H](C)NC(=O)[C@H](C)NC(=O)[C@H](CN(CCCC(F)(F)F)CC(=O)O)NC(=O)[C@H](CC(=O)O)NC1=O)NC(=O)[C@H](CC(C)(C)C)NC(=O)[C@H](CC(=O)O)NC2=O` (stereo partly drawn) [I-1454, Ac-PL3-Asp-Npg-B5-Asp-[Tfb]GA-Ala-Ala-Phe-Asn-S8-3Thi-BztA-Gln-NH2], the IC50 was 22 nM in test [1] (setting [3]), 22 nM in test [1] (read-out: beta-Catenin FP IC50) and 26800 nM in test [2].
For `CC(=O)N1CCC[C@]12CC=CCCCC1(CCCC=CCCCCCC[C@@](C)(C(=O)N[C@@H](Cc3ccsc3)C(=O)N[C@@H](Cc3csc4ccccc34)C(=O)N[C@@H](CCC(N)=O)C(N)=O)NC(=O)[C@H](CC(N)=O)NC(=O)[C@H](Cc3ccccc3)NC(=O)[C@H](C)NC(=O)[C@H](C)NC(=O)[C@H](CN(CCCC(F)(F)F)CC(=O)O)NC(=O)[C@H](CC(=O)O)NC1=O)NC(=O)[C@H](CC(C)(C)C)NC(=O)[C@H](CC(=O)O)NC2=O` (stereo partly drawn) [I-1455, Ac-PL3-Asp-Npg-B5-Asp-[Tfb]GA-Ala-Ala-Phe-Asn-S8-3Thi-BztA-Gln-NH2], the IC50 in test [1] (setting [3]) came to 13 nM; in test [1] (read-out: beta-Catenin FP IC50) it was 13 nM; in test [2] it was 23100 nM.
For `CC(=O)N1CCC[C@]12CC=CCCCC1(CCCC=CCCCCCC[C@@](C)(C(=O)N[C@@H](Cc3ccsc3)C(=O)N[C@@H](Cc3csc4ccccc34)C(=O)N[C@@H](CCC(N)=O)C(N)=O)NC(=O)[C@H](CC(N)=O)NC(=O)[C@H](Cc3ccccc3)NC(=O)[C@H](C)NC(=O)[C@H](C)NC(=O)[C@H](CN(CC(=O)O)Cc3ccccc3)NC(=O)[C@H](CC(=O)O)NC1=O)NC(=O)[C@H](CC(C)(C)C)NC(=O)[C@H](CC(=O)O)NC2=O` (stereo partly drawn) [I-1456, Ac-PL3-Asp-Npg-B5-Asp-[Bn]GA-Ala-Ala-Phe-Asn-S8-3Thi-BztA-Gln-NH2], the values for the IC50 in test [1] (read-out: beta-Catenin FP IC50) and in test [2] were 16 nM and 23700 nM, respectively.
The like results for `CC(=O)N1CCC[C@]12CC=CCCCC1(CCCC=CCCCOC(=O)N3CC[C@@](C(=O)N[C@@H](Cc4ccccc4Cl)C(=O)N[C@@H](Cc4csc5ccccc45)C(=O)N[C@@H](CCC(N)=O)C(N)=O)(C3)NC(=O)[C@H](CC(N)=O)NC(=O)[C@H](Cc3ccccc3)NC(=O)[C@H](C)NC(=O)[C@H](C)NC(=O)[C@H](CNCCC(F)(F)F)NC(=O)[C@H](CC(=O)O)NC1=O)NC(=O)[C@H](CC(C)(C)C)NC(=O)[C@H](CC(=O)O)NC2=O` (stereo partly drawn) [I-1457, Ac-PL3-Asp-Npg-B5-Asp-[Tfp]Dap-Ala-Ala-Phe-Asn-PyrS2-2C1F-BztA-Gln-NH2] were, in that order, 43 nM and more than 20000 nM.
The like results for `CC(=O)N1CCC[C@]12CC=CCCCC1(CCCC=CCCCCCC[C@@](C)(C(=O)N[C@@H](Cc3ccccc3)C(=O)N[C@@H](Cc3csc4ccccc34)C(=O)N[C@@H](CCC(N)=O)C(N)=O)NC(=O)[C@H](CCC(N)=O)NC(=O)[C@H](Cc3ccccc3)NC(=O)[C@H](C)NC(=O)[C@H](C)NC(=O)[C@H](CCC(=O)O)NC(=O)[C@H](CC(=O)O)NC1=O)NC(=O)[C@H](CC(C)C)NC(=O)[C@H](CC(=O)O)NC2=O` (stereo partly drawn) [I-1458, Ac-PL3-Asp-Leu-B5-Asp-Glu-Ala-Ala-Phe-Gln-S8-Phe-BztA-Gln-NH2] were, in that order, 26 nM and 18100 nM.

(Values after patent publication US20240116985A1, “STAPLED PEPTIDES AND METHODS THEREOF” (priority 2020, published 2024).)
